According to US20250099475A1, “METHODS OF TREATING HYPERTENSION BY PERIODIC SUPPRESSION OF ALDOSTERONE SYNTHASE” (Mineralys Therapeutics, Inc., priority 2022, published 2025):
Read-outs that look alike come from different tables or passages of the source.

Legend:
[1] = Phase 1 part 1 single ascending dose: pharmacokinetics; assay type: in vivo, human; conditions: for half-life / Tmax: male, human, plasma, oral
Method: A 4-part, Phase 1 randomized, double-blind, placebo-controlled, first-in-human study was performed to determine the safety, tolerability, PK, and PD of single ascending doses (SADs; part 1) and multiple ascending doses (MADs; part 2) of Compound A HBr in healthy participants. The study also assessed whether there were sex (part 3) and age-related (part 4) effects on the PK of a single dose of Compound A HBr. The study was approved by the local independent ethics committee; the BEBO foundation in Assen, Netherlands; and the Central Committee on Research Involving Human Subjects in The Hague, Netherlands; and conducted according to the provisions of the Declaration of Helsinki. Written informed consent was obtained from each study participant before conducting any protocol-related procedures.
In part 1, Compound A HBr or placebo was administered to 64 healthy Caucasian men aged 18 to 55 years (inclusive) in 8 cohorts of 8 participants each. In each cohort, 6 participants were randomized to receive a single dose of Compound A HBr and 2 participants were randomized to receive matching placebo. All cohorts included 2 sentinel participants of whom 1 received Compound A HBr and 1 received matching placebo. The remaining 6 participants, of whom 5 received Compound A HBr and 1 received placebo, were dosed ≥24 hours following the sentinel participants. The dosing cohorts were 5, 10, 20, 50, 100, 200, 400, and 800 mg. Doses were administered in an ascending order per cohort, with a minimum 10-day interval between consecutive dose levels. Participants received a single dose of Compound A HBr or placebo in the fasted state.
Plasma PK parameters were derived by non-compartmental analysis using WinNonlin® (version 6.3). Dose proportionality was assessed using the power model with AUC0-∞, AUC0-last, and Cmax for part 1 (SAD) and with AUC0-last, AUC0-∞, AUC0-τ, and Cmax for part 2 (MAD). A linear model (ln(Y)=α+β×ln(X), where Y is the pharmacokinetic parameter and X is the dose) was used to fit the power model, after log-transformation of the parameters. Dose proportionality was concluded if the 95% confidence interval (CI) for slope (β) included the value 1.
An analytical method for the determination of Compound A in human plasma (dipotassium ethylenediaminetetraacetic acid [K2-EDTA]) and human urine using solid-phase extraction and high-performance liquid chromatography with mass spectrometric detection was successfully validated over the concentration range 0.1000 ng/mL (lower limit of quantification) to 100.0 ng/mL prior to initiation of the clinical trial. […] For all other analytes, validated quantitative measurement methods were used.

[2] = test system: plasma aldosterone concentrations (PACs); assay: Sodium-depleted cynomolgus monkey model; assay type: in vivo; conditions: single oral administration
Method: A sodium-depleted cynomolgus monkey model with secondary hyperaldosteronism was performed to evaluate the effect of Compound A on plasma aldosterone concentrations (PACs). The model used a low-sodium diet and 3 doses of 5 mg/kg furosemide. Two animals each were assigned to 6 groups consisting of a vehicle group and 5 Compound A (free base) groups (0.3, 1, 3, 10, and 30 mg/kg). Six crossovers were performed so that every animal was assigned to each group. Hyperaldosteronism was induced once every 3 weeks. PAC was determined by radioimmunoassay and measured during the 24 hours after Compound A administration.

## CC(=O)N[C@H]1CC[C@H](NC(=O)CN2CCN(c3nncc(-c4ccc(C)cc4)n3)CC2)CC1 [Compound A HBr]
[1]; single 5 mg, fasted, read-out: T 1/2, mean (SD) (converted)
  half-life: 8 h
[1]; single 10 mg, fasted, read-out: T 1/2, mean (SD) (converted)
  half-life: 8 h
[1]; single 10 mg, fasted, read-out: Tmax, median and range
  Tmax: 1.25 h
[1]; single 200 mg, fasted, read-out: Tmax, median and range
  Tmax: 1.25 h
[1]; single 400 mg, fasted, read-out: Tmax, median and range
  Tmax: 1.25 h
[1]; single 800 mg, fasted, read-out: T 1/2, mean (SD) (converted)
  half-life: 11 h
[1]; single doses 5 to 800 mg, read-out: Median Tmax values
  Tmax: 1 to 1.5 h
[1]; single doses 5 to 800 mg, read-out: mean t1/2 values
  half-life: 7.92 to 10.5 h
[1]; single 5 mg, fasted
  AUC0-inf, mean (SD): 231 (25) ng × h/mL
  Cmax, mean (SD): 37 (7) ng/mL
  Tmax, median and range: 1.5 (1-3) h
[1]; single 10 mg, fasted
  AUC0-inf, mean (SD): 451 (46) ng × h/mL
  Cmax, mean (SD): 76 (20) ng/mL
[1]; single 20 mg, fasted
  AUC0-inf, mean (SD): 768 (182) ng × h/mL
  Cmax, mean (SD): 141 (76) ng/mL
  Tmax, median and range: 1.5 (1-3) h
[1]; single 50 mg, fasted
  AUC0-inf, mean (SD): 2155 (258) ng × h/mL
  Cmax, mean (SD): 573 (206) ng/mL
  T 1/2, mean (SD): 9 (2) h
  Tmax, median and range: 1 (0.5-3) h
[1]; single 100 mg, fasted
  AUC0-inf, mean (SD): 5366 (493) ng × h/mL
  Cmax, mean (SD): 1211 (248) ng/mL
  Tmax, median and range: 1.5 (1-3) h
[1]; single 200 mg, fasted
  AUC0-inf, mean (SD): 10645 (3486) ng × h/mL
  Cmax, mean (SD): 2848 (1015) ng/mL
  T 1/2, mean (SD): 10 (4) h
[1]; single 400 mg, fasted
  AUC0-inf, mean (SD): 17257 (2907) ng × h/mL
  Cmax, mean (SD): 4455 (862) ng/mL
[1]; single 800 mg, fasted
  AUC0-inf, mean (SD): 29331 (3623) ng × h/mL
  Cmax, mean (SD): 7708 (1617) ng/mL
  Tmax, median and range: 1.5 (0.5-4) h
[1]; single doses 5 to 800 mg
  dose proportionality of AUC0-last and AUC0-∞: dose-proportional increase

## CC(=O)N[C@H]1CC[C@H](NC(=O)CN2CCN(c3nncc(-c4ccc(C)cc4)n3)CC2)CC1 [Compound A]
[2]
  effect on PAC: significantly decreased PAC
